Marks after values point to notes of the source that are not given here.
How the values were obtained:
[1] = Tumor exposure of Compound A35 (FIG. 3); type: in vivo; settings: over a 4-hour and 24-hour period (FIG. 3)
[2] = tested on: patients with follicular lymphoma (FL); test: Phase 1b study of Compound A35 alone or with rituximab: disease response in follicular lymphoma patients; type: in vivo, human
Method: In an ongoing Phase 1b study, patients with relapsed B-cell malignancies are administered Compound A35 either as a single agent or in combination with the anti-CD20 antibody rituximab (Rituxan®). A total of 90 subjects have been enrolled in the study to date: • 31 subjects enrolled in a dose escalation cohort of Compound A35 administered as a single agent at a daily dose of 60, 120, and 180 mg; • 21 subjects enrolled in an ongoing expansion cohort of Compound A35 administered as a single agent at 60 mg/day, either on a daily continuous schedule (CS) only or on a daily dosing followed by a switch to an intermittent dosing schedule […] beginning in Cycle 3. • 38 subjects enrolled in a cohort of Compound A35 at 60 mg/day on a CS or IS dosing plus infusional rituximab at a dose of 375 mg/m^2 administered for a total of 8 doses in 6 months
Patients with FL were treated with Compound A35 either alone (N=40) or in combination with the anti-CD20 antibody rituximab (N=14). Most patients in the rituximab combination cohort received Compound A35 by intermittent schedule (IS) after 2 cycles of daily dosing of Compound A35.
(§1) Methods: Patients with ECOG ≤2, no prior PI3K therapy and progression of disease (POD) after ≥1 prior therapy were initially enrolled in a dose escalation phase (60-180 mg) then in 60 mg expansion cohorts as monotherapy or in combination with rituximab. Treatment is given in 28-day cycles and continued until POD or unacceptable toxicity. Compound A35 was given initially on a continuous daily dosing schedule. An intermittent dosing schedule on days 1-7 of a 28-day cycle was then evaluated after 2 cycles of daily dosing, or ≥3 cycles of daily dosing to reduce the risk of immune-related adverse events. For this analysis the intermittent schedule (IS) group is defined as patients who received Compound A35 alone or with rituximab daily for 2 cycles then switched to an intermittent schedule of 1 week per cycle, and the continuous schedule (CS) group is defined as patients who never switched to intermittent dosing or switched to intermittent dosing in cycle 4 or later cycles. Toxicity on CS is managed by a switch to IS. Progression of disease (POD) on IS is managed by a switch to CS.

[3] = tested on: patients with follicular lymphoma (FL); test: Phase 1b study: patient disposition on continuous (CS) or intermittent (IS) schedule; type: in vivo, human
Method: as §1

[4] = tested on: patients with follicular lymphoma (FL); test: Phase 1b study: patients with adverse events of special interest (AESI); type: in vivo, human
Method: as §1

[5] = tested on: murine B-cell tumors; test: Retention in murine B-cell tumors (FIG. 4); type: in vivo; settings: compared to idelalisib (FIG. 4)
[6] = CS Group (N = 25), Compound A35 alone arm
[7] = CS Group (N = 31), A35 alone or with rituximab
[8] = FL patients, A35 alone or with rituximab
[9] = IS Group (N = 15), Compound A35 alone arm
[10] = IS Group (N = 23), A35 alone or with rituximab
[11] = All Grades, All (N = 40), single agent therapy
[12] = All Grades, CS Group (N = 25), single agent therapy
[13] = All Grades, CS Group (N = 31), A35 alone or with rituximab
[14] = All Grades, IS Group (N = 15), single agent therapy
[15] = All Grades, IS Group (N = 23), A35 alone or with rituximab
[16] = Grade 3, CS Group (N = 31), A35 alone or with rituximab
[17] = Grade 3, IS Group (N = 23), A35 alone or with rituximab
[18] = Related Grade 3, All (N = 40), single agent therapy
[19] = Related Grade 3, CS Group (N = 25), single agent therapy
[20] = Related Grade 3, IS Group (N = 15), single agent therapy

tumor exposure [1]: preferential tumor exposure | retention in murine B-cell tumors [5]: preferential retention
Structure (SMILES): CN1CCC(c2ccccc2CC(C)(C)Nc2nc(N3CCOCC3)nc(-n3c(C(F)F)nc4ccccc43)n2)CC1 [Compound A35]
rate of response in POD24 patients ([2]; A35 alone or in combination with a CD20 inhibitor, higher than expected with conventional FL therapy): very high rate of response | morphologic/metabolic CR ([2]; FL patients with follow-up disease assessment, Compound A35 alone): 20% | No. (%) of Subjects with a Response ([2]; No POD24, Total (A35 alone and A35 + rituximab cohorts)): 16 (67%) No. (%) | No. (%) of Subjects with a Response ([2]; No POD24 FL subjects evaluable for response): 14 (64%) No. (%) | No. (%) of Subjects with a Response ([2]; POD24, Total (A35 alone and A35 + rituximab cohorts)): 24 (92%) No. (%) | No. (%) of Subjects with a Response ([2]; POD24 FL subjects evaluable for response): 16 (100%) No. (%) | rate of durable responses ([2]; R/R FL): high rate of durable responses | POD24 subjects with response who had PD ([2]; of 24 POD24 subjects who achieved response): 6 subjects | Patient Disposition: Adverse event [3, 6]: 3 (12%) | Patient Disposition: Progressive disease [3, 6]: 4 (16%) | Patient Disposition: Adverse event [3, 7]: 3 (10%) | Patient Disposition: Progressive disease [3, 7]: 4 (13%) | patients discontinued: POD [3, 8]: 9 patients | patients discontinued: adverse events (AEs) [3, 8]: 4 patients | Patient Disposition: Adverse event [3, 9]: 1 (7%) | Patient Disposition: Progressive disease [3, 9]: 0% | Patient Disposition: Adverse event [3, 10]: 1 (4%) | Patient Disposition: Progressive disease [3, 10]: 0 (0%) | AESI: ALT/AST increased [4, 11]: 9 (22.5%) | AESI: Diarrhea/colitis [4, 11]: 17 (42.5%) | AESI: Mucositis [4, 11]: 6 (15.0%) | AESI: Pneumonia/ Pneumonitis [4, 11]: 2 (5.0%) | AESI: Rash, all types [4, 11]: 12 (30.0%) | AESI: ALT/AST increased [4, 12]: 6 (24.0%) | AESI: Diarrhea/colitis [4, 12]: 10 (40.0%) | AESI: Mucositis [4, 12]: 6 (24.0%) | AESI: Pneumonia/ Pneumonitis [4, 12]: 2 (8.0%) | AESI: Rash, all types [4, 12]: 11 (44.0%) | AESI: ALT/AST increased [4, 13]: 8 (25.8%) | AESI: Diarrhea/colitis [4, 13]: 11 (35.5%) | AESI: Mucositis [4, 13]: 6 (19.4%) | AESI: Pneumonia [4, 13]: 2 (6.5%) | AESI: Rash, all types [4, 13]: 11 (35.5%) | AESI: ALT/AST increased [4, 14]: 3 (20.0%) | AESI: Diarrhea/colitis [4, 14]: 7 (46.7%) | AESI: Mucositis [4, 14]: 0% | AESI: Pneumonia/ Pneumonitis [4, 14]: 0% | AESI: Rash, all types [4, 14]: 1 (6.7%) | AESI: ALT/AST increased [4, 15]: 7 (30.4%) | AESI: Mucositis [4, 15]: 1 (4.3%) | AESI: Pneumonia [4, 15]: 0% | AESI: Rash, all types [4, 15]: 2 (8.7%) | AESI: Diarrhea/colitis ([4]; All Grades, IS Group (N = 23), A35 alone or with rituximab, excluded 1 subject with diarrhea after POD and 1 with one-day diarrhea): 11 (47.8%)* | AESI: ALT/AST increased [4, 16]: 3 (9.7%) | AESI: Diarrhea/colitis [4, 16]: 5 (16.1%) | AESI: Mucositis [4, 16]: 1 (3.2%) | AESI: Pneumonia [4, 16]: 2 (6.5%) | AESI: Rash, all types [4, 16]: 4 (12.9%) | AESI: ALT/AST increased [4, 17]: 1 (4.3%) | AESI: Diarrhea/colitis [4, 17]: 2 (8.7%) | AESI: Mucositis [4, 17]: 0% | AESI: Pneumonia [4, 17]: 0% | AESI: Rash, all types [4, 17]: 0% | Grade 3 immune-related adverse events ([4]; IS group (N=23) compared to the CS group (N=31)): less common | AESI: ALT/AST increased [4, 18]: 3 (7.5%) | AESI: Diarrhea/colitis [4, 18]: 6 (15.0%) | AESI: Mucositis [4, 18]: 1 (2.5%) | AESI: Pneumonia/ Pneumonitis [4, 18]: 2 (5.0%) | AESI: Rash, all types [4, 18]: 4 (10.0%) | AESI: ALT/AST increased [4, 19]: 3 (12.0%) | AESI: Diarrhea/colitis [4, 19]: 5 (20.0%) | AESI: Mucositis [4, 19]: 1 (4.0%) | AESI: Pneumonia/ Pneumonitis [4, 19]: 2 (8.0%) | AESI: Rash, all types [4, 19]: 4 (16.0%) | AESI: ALT/AST increased [4, 20]: 0% | AESI: Diarrhea/colitis [4, 20]: 1 (6.7%) | AESI: Mucositis [4, 20]: 0% | AESI: Pneumonia/ Pneumonitis [4, 20]: 0% | AESI: Rash, all types [4, 20]: 0% | incidence of immune-related adverse events (irAEs) ([4]; intermittent schedule (IS)): appears to reduce the incidence

Source: US20210196725A1, “TREATMENT OF RELAPSED FOLLICULAR LYMPHOMA” (MEI Pharma, Inc., priority 2018, published 2021)
